Test system in the first data set: not listed separately
Put plainly: Dissolution of sample during sample preparation (Experimental Example 2). The note with it: final concentration of 1.5 mM (#24), 1% DMSO-containing PBS. The class given is physicochemical. As to the method: To 20 mg of RebC, 21 μL of DMSO (manufactured by FUJIFILM Wako Pure Chemical Corporation, model number: 037-24053) was added. The mixture was then stirred by vortex and allowed to stand for several hours to obtain a stock solution having a RebC concentration of 1,000 mM. The obtained stock solution and PBS were used to prepare a 10 mM solution.
The 10 mM solution was diluted as needed with 1% DMSO-containing PBS to obtain Sample G-1 mM to Sample G-10 mM. The concentrations of RebC are described in Table 1.
Regarding rebaudioside C [RebC], the dissolution of sample entry is listed as “not able to be dissolved”.

The next data set concerns H716. Put plainly: GLP-1 secretion amount of sweeteners, 24 hours (Experimental Example 1). In kind it is cell-based, human. The note with it: H716, 24 hours after addition of stock solution, PBS as negative control (no sample). As to the method: RebA. RebB, RebM. RebN. RebD. RebC, MogV, and stevioside were examined for their GLP-1 secretion-promoting effects. Specifically, the amount of GLP-1 secretion was measured by the following procedures.
Each test substance B, C, D, E, F, G, I, or J was dissolved in PBS (Thermo Fisher Scientific Inc.) (Cat. No. 14190250) to obtain a stock solution. The concentration of the stock solution is shown below:
B (RebA); 5 mM, C (RebB); 1M, D (RebM); 2.5 mM, E (RebN); 1M, F (RebD); 2.5 mM, G (RebC); 2.5 mM, I (MogV); 1M, J(stevioside); 1M
H716 (ATCC) (Cat. No. ATCC®, CCL-251) was cultured in RPMI 1640 (10% FBS (Thermo Fisher Scientific Inc.) (Cat. No. 10439024), 1 mM Sodium Pyruvate) in an incubator at 37° C., 5% CO2.
The preculture was performed for 2 weeks, and the cells were sufficiently recovered, and then cell stocks were prepared.
Cells were seeded in 96-well plates at 2×10^5 cells/90 μL (high) per well (N=4). At this time, the content of FBS in the medium was lowered to 0.5% to suppress cell proliferation.
After 24 hours, the sample at the highest concentration (i.e., stock solution) was added by […] each.
After further 24 hours, quantitation of GLP-1 was performed. Specific procedures were followed the user guide of Human GLP-1 (7-36 amide) Immunoassay kit (Cat. No. AL359) (Lot number 2361115) provided by PerkinElmer, Inc. PBS was used as a negative control (no sample).
For rebaudioside C [RebC], the “amount of GLP-1 secretion compared with no sample” value is on record as “significantly larger amounts of GLP-1 secretion than no sample”.
Same read-out and setting: then `C=C1C[C@@]23CC[C@H]4[C@@](C)(CCC[C@@]4(C)C(=O)O[C@@H]4O[C@H](CO)[C@@H](O)[C@H](O)[C@H]4O)[C@@H]2CC[C@]1(O[C@@H]1O[C@H](CO)[C@@H](O)[C@H](O)[C@H]1O[C@@H]1O[C@H](CO)[C@@H](O)[C@H](O)[C@H]1O)C3` [stevioside, Stevioside], with “significantly larger amounts of GLP-1 secretion than no sample”; and rebaudioside B [RebB], with “significantly larger amounts of GLP-1 secretion than no sample”; and `C[C@H](CC[C@@H](O[C@@H]1O[C@H](CO[C@@H]2O[C@H](CO)[C@@H](O)[C@H](O)[C@H]2O)[C@@H](O)[C@H](O)[C@H]1O[C@@H]1O[C@H](CO)[C@@H](O)[C@H](O)[C@H]1O)C(C)(C)O)[C@H]1CC[C@@]2(C)[C@@H]3CC=C4[C@@H](CC[C@H](O[C@@H]5O[C@H](CO[C@@H]6O[C@H](CO)[C@@H](O)[C@H](O)[C@H]6O)[C@@H](O)[C@H](O)[C@H]5O)C4(C)C)[C@]3(C)[C@H](O)C[C@]12C` [MogV, mogroside V], with “significantly larger amounts of GLP-1 secretion than no sample”.
On the same count and under the same terms, then `C=C1C[C@@]23CC[C@H]4[C@@](C)(CCC[C@@]4(C)C(=O)O[C@@H]4O[C@H](CO)[C@@H](O)[C@H](O)[C@H]4O)[C@@H]2CC[C@]1(O[C@@H]1O[C@H](CO)[C@@H](O)[C@H](O[C@@H]2O[C@H](CO)[C@@H](O)[C@H](O)[C@H]2O)[C@H]1O[C@@H]1O[C@H](CO)[C@@H](O)[C@H](O)[C@H]1O)C3` [RebA, Rebaudioside A], with “significantly larger amounts of GLP-1 secretion than no sample”.

(Values after patent US20220226354A1, “GLP-1 SECRETION-PROMOTING COMPOSITION” (SUNTORY HOLDINGS LIMITED, priority 2019, published 2022).)
